Results from patent US20230241101A1 (priority 2020, published 2023).
Read-outs that look alike come from different tables or passages of the source.

How the values were obtained:
SARS-CoV-2 [1] = test: GA treatment of COVID-19 golden hamster via intranasal administration; format: in vivo, golden hamster rats; details: nasal spray 25 mg/kg.bw daily, day 4
SARS-CoV-2 [2] = test: SARS-CoV-2 replication in Vero cells (qRT-PCR); format: cell-based; details: read-out: EC50, inhibition of 50% SARS-CoV-2 replication in Vero cells
[3] = tested on: human bronchial epithelial cells (16HBE); test: Cell viability CCK8, 16HBE cells; format: cell-based; details: 16HBE epithelial cell, 48 hrs
Experimental: (§1) To test whether GA and AF are toxic to normal cells, Vero E6, RAW264.7, and 16HBE cell lines were tested. Various doses of AURANOFIN or GA gold cluster were added into cell culture media respectively. After 48 hours of incubation, cell viability was checked by CCK8 (Beyotime, China) following the manufacturer’s instruction, all studies were carried out in triplicate. All cell lines were obtained from ATCC with authentication service.

Vero E6 cell = test: Cell viability CCK8, Vero E6 cells; format: cell-based; details: 48 hrs
Experimental: as §1

[4] = tested on: inflammatory cytokine levels; details: oral AF 6-9 mg/kg.bw; intraperitoneal GA 5 mg/kg.bw; cited from earlier work
SARS-CoV-2 [5] = details: Rothan et al, Virology 2020; read-out: EC50, SARS-CoV-2 replication in infected Huh cells; cited from earlier work
[6] = tested on: IL-6, IL-1β, TNF-α expression and NFκB pathway in RAW 264.7 cells; test: Western blot of cytokine expression and NFκB pathway, RAW 264.7 cells; format: cell-based; details: AF 1.2 µM, GA 40 µM
Experimental: (§2) RAW 264.7 or 16HBE cells were seeded into 6 well plates at a density of 2 × 10^6cells/well. […] The collected cell lysates were centrifuged at 13000 rpm for 10 min, and the supernatants were stored for the subsequent Western Blot analysis. The protein concentrations of the supernatants were determined using a microplate spectrophotometer (SPECTRAMAX M4 of Molecular Devices, USA) at a wavelength of 595 nm. An equal quantity of proteins (50 µg) was separated by running on 10% SDS-PAGE and the separated proteins were transferred to a polyvinylidene fluoride (PVDF) membrane (0.45 µm, Millipore, USA). […]

SD Rat = details: cited from earlier work
[7] = tested on: IL-6, IL-1β, TNF-α expression and NFκB pathway in 16HBE cells; test: Western blot of cytokine expression and NFκB pathway, 16HBE cells; format: cell-based, human
Experimental: as §2

[8] = tested on: macrophage RAW264.7 cells; test: Cell viability CCK8, RAW264.7 cells; format: cell-based; details: 48 hrs
Experimental: as §1

BALB/c mice = details: cited from earlier work
SARS-CoV-2 M^pro = SARS-CoV-2 M^pro (Severe acute respiratory syndrome coronavirus 2, UniProt P0DTD1); test: M^pro protease activity FRET assay; format: biochemical; details: no value printed (data not shown or figure only)

In the case of `CCC(CC)COC(=O)[C@H](C)N[P@](=O)(OC[C@H]1O[C@@](C#N)(c2ccc3c(N)ncnn23)[C@H](O)[C@@H]1O)Oc1ccccc1`, the “average pathological score of lung (INHAND)” value (SARS-CoV-2 [1]) is reported as “approx. 2.7” and the EC50 (SARS-CoV-2 [2]; Severe acute respiratory syndrome coronavirus 2, Vero, 48 h) is reported as about 650 nM.
For `CC(=O)OC[C@H]1O[C@@H]([S-])[C@H](OC(C)=O)[C@@H](OC(C)=O)[C@@H]1OC(C)=O.CCP(CC)CC.[Au+]` [AF, AURANOFIN], the CC50 [3] is given as about 630 nM, the CC50 (Vero E6 cell) is given as about 2270 nM and the inflammatory cytokine levels [4] is given as “significant suppression”. The EC50 (SARS-CoV-2 [5]) was about 1400 nM, the “phosphorylation of IKK, IκB, and p65 (NFκB activation)” value ([6]; inflammatory macrophage cells) was “inhibit” and the “IL-6, IL-1β, and TNF-α expression levels” value ([6]; macrophage cells, TNFα 50 ng/mL, 24 hrs) was “significantly suppressed”. The LD50 (SD Rat; SD Rat, AF known value) was “LD50, about 25 mg/kg.bw”, the “intraperitoneal LD50” value (SD Rat; rat, known value) was “about 25.5 mg/kg” and the “phosphorylation level of IKK, IκB, p65 and IL-6, IL-1β, TNF-α expression” value ([7]; bronchial epithelial cells, AF 0.15 µM, GA 20 µM) was “significantly inhibited”. For the same compound, the “IL-6, IL-1β, and TNF-α expression levels” value ([7]; human bronchial epithelial cells, TNFα 50 ng/mL, 24 hrs, AF 1.2 µM, GA 40 µM) was “significantly suppressed”, the CC50 [8] was about 2630 nM and the LD50 (BALB/c mice; BALB/c Mice, AF known value) was “LD50, about 33.8 mg/kg.bw”. For the same compound, the “intraperitoneal LD50” value (BALB/c mice; mice, known value) was “about 33.8 mg/kg” and the EC50 (SARS-CoV-2 [2]; MOI 0.015, 48 h.p.i., qRT-PCR) was about 830 nM.
With `OC[C@H]1O[C@H]([S-])[C@H](O)[C@@H](O)[C@@H]1O.[Au+]` [aurothioglucose] the “inhibition / suppression of M^pro protease activity (in words)” value (SARS-CoV-2 M^pro) was “able to inhibit”.
